In article PMC4433269 (PLoS ONE, 2015):
Read-outs that look alike come from different tables or passages of the source.

Legend:
everted rat gut sacs [1] = settings: for ER(P2/P0): Papp with 6-gingerol / Papp alone; for ER(P1/P0): Papp with Rhizoma Zingiberis extract / Papp alone
Procedure: (§1) All of the rats were starved for 24 h before the experiments. The rats were sacrificed by decapitation, and the duodenum, jejunum, ileum and colon were immediately removed and placed in a 37°C K-R solution that was oxygenated (O2/CO2, 95%:5%). After washing in order with K-R solution at room temperature, the four intestinal segments were everted on a glass rod (3 mm in diameter) with one end of each clamped before filling with fresh oxygenated K-R solution. The intestines were then sealed with braided sutures. Each sac was placed in a 10 mL test tube that contained 8 mL of oxygenated drug-containing K-R solution at 37°C. Then, 0.1 mL of serosal fluid was collected at the appropriate time points, and an equal volume of K-R solution was added to the serosal side. Finally, the solution in the sacs was collected to accurately calculate the volume, and each sac was accurately weighed before and after being cut open. The area of each sac was measured. All of the samples were analyzed using the UPLC-MS method. After analysis, the amounts (ng/mm^2) of absorbed aconitine and digoxin were calculated. Each experiment was repeated five times, and the presented data represent the means ± S.D. This study was conducted in accordance with the internationally accepted principles for laboratory animal use and care as found in the European Community guidelines.
(§2) The analytical UPLC-MS system consisted of an Acquity Ultra Performance LC with a Xevo TQ mass spectrometer as the detector, and it was equipped with an electrospray source in the positive ion mode (Waters Co., USA). Separation was performed on a BEH Extend-C18 column (2.1*50 mm, 1.7 μm, Agilent Co., USA). The mobile phase was composed of methanol mixed with acetonitrile in equal volumes (A) and an aqueous solution of ammonium acetate at pH 10.5 (B). The gradient elution conditions were as follows: 0–1 min 10–43% A, 2–4.5 min 55–100% A, and 5–7 min 10% A. The flow rate was 0.3 mL/min. The column temperature was 35°C throughout the entire detection process. All of the samples were freeze-dried after being collected from the serosal side, and the residue was dissolved with 0.1 mL of the mobile phase (A) prior to injecting 5 μL of each sample into the UPLC system.
To study the effect of the Rhizoma Zingiberis extract on the concentration of aconitine in the rat gut sacs, the apparent […] coefficient (Papp) was calculated using the equation Papp = [V/(A·C0)]·dC/dt, where V represents the fluid volume in the serosal side, A represents the superficial area of the gut sac, and C0 represents the initial concentration of aconitine outside the gut sac.
The experiment described in this section was conducted under the same conditions as decribed in the “Effect of the Rhizoma Zingiberis extract on the level of aconitine in the rat gut sacs” section.

P-glycoprotein [2] = assay: Effect on the level of the P-gp substrate digoxin in rat gut sacs; assay type: in vitro ADME
Procedure: as §1
The flow rate was 0.3 mL/min.

[3] = assay type: physicochemical; settings: for Stability RSD%: 0 h, 24 h and 48 h; for Stability of QC samples: RSD % less than 15%
Procedure: The selectivity was examined by detecting blank K-R nutrient solutions, which were useful only if no peaks appeared at the retention times of aconitine and digoxin. The inter-day and intra-day accuracies were evaluated by calculating the percent relative standard deviation (RSD %) of the concentration of the quality control (QC) samples on the same day or over three days. The matrix effect was determined by comparing the concentrations of samples with standard solution added into a blank K-R solution after extraction with QC samples. The extraction recovery was calculated by comparing the concentration of normally extracted samples with that of the QC samples. The stability was evaluated by calculating the RSD % of the concentration of the quality control (QC) samples at 0 h, 24 h and 48 h. The accuracy, matrix effect, extraction recovery and stability were all replicated by five QC samples at three levels. The LOD and LLOQ were the concentrations of QC samples with peak signal-to-noise ratios (S/N) of at least 3 and 10, respectively.

[4] = Solubility in tested solvents during sample processing; settings: tested solvents: methanol, ethanol, acetonitrile, distilled water, DMSO
Procedure: Because there were numerous inorganic salts that were harmful to the mass spectrometer in the everted sac samples, dechloridation was the first consideration when we developed the processing method. We applied lyophilization as the first step for prolonging the resting period of the samples to avoid the decomposition of unstable components. […] Therefore, the second step consisted of dissolving aconitine in methanol. […] The third step consisted of centrifuging, and 5 μL of the supernatant liquid was injected into the UPLC/MS.

everted rat gut sacs [5] = assay type: in vitro ADME; settings: 120 min
Procedure: as §1, §2
The intestinal kinetic absorptive behavior of aconitine was investigated in the gut sac model cultured in K-R nutrient solution for 120 min. The accumulative absorbed dose (Q) of aconitine was calculated for use in zero-level, primary and Higuchi equation fitting. Then, the determination coefficient (R^2) of the equation was set as the evaluation criterion for the quality of the fit. […] The slope of the fitting equation represents the absorption rate constant (ka).

P-glycoprotein [6] = settings: deduced from verapamil effect in rat gut sacs
Procedure: as §1

everted rat gut sacs [7] = assay: Viability of the everted rat gut sacs (serosal/mucosal glucose ratio); settings: incubation up to 120 min; Fig 5
Procedure: To verify the integrity and viability of the gut sacs, glucose was collected from both the serosal side and the mucosal side of the rat gut sacs at a fixed time, and glucose was detected using a Waters UPLC/MS (Waters Co., USA), which is more accurate and sensitive than a UV-Vis detector. Separation was performed on a Hypersil NH column (4.6*150 mm, 25 μm, Elite Co., China). Although only glucose was available for detection in this part, the column separation was essential because large amounts of inorganic salts were present in the K-R nutrient solution. A mobile phase composed of 80% acetonitrile (A) and 20% distilled water (B) was used for isocratic elution. The retention time for glucose was 7.37 min. The peak area ratio of glucose in the serosal side to that in the mucosal side was used to validate the viability of the everted rat gut sacs.

P-glycoprotein [8] = test system: P-glycoprotein; design: method as in earlier work; settings: Caco-2 cell culture model; cited from earlier work
[9] = Middle concentration QC samples

CCCCC[C@H](O)CC(=O)CCc1ccc(O)c(OC)c1 [6-gingerol]
Effect on the level (Papp) of aconitine in the rat gut sacs (everted rat gut sacs [1]; added to high aconitine concentration, all four gut sacs): P2 value is smaller than the P0 value in each gut sac
Effect on digoxin content in gut sacs (P-glycoprotein [2]; co-incubated with digoxin, every gut sac, Fig 7, Fig 9): decreased
Effect on P-glycoprotein (inducer / revulsant) (P-glycoprotein [2]; deduced from decreased digoxin level in rat gut sacs): potential revulsant of P-gp

C[C@H]1O[C@@H](O[C@H]2[C@@H](O)C[C@H](O[C@H]3[C@@H](O)C[C@H](O[C@H]4CC[C@@]5(C)[C@H](CC[C@@H]6[C@@H]5C[C@@H](O)[C@]5(C)[C@@H](C7=CC(=O)OC7)CC[C@]65O)C4)O[C@@H]3C)O[C@@H]2C)C[C@H](O)[C@@H]1O [digoxin, reference compound]
Stability RSD% ([3]; High concentration QC samples): 1.336%
Stability RSD% ([3]; Low concentration QC samples): 2.036%
Stability RSD% [3, 9]: 4.913%
Stability of QC samples [3]: stable for 48 h
Solubility in solvents [4]: only could be dissolved in dimethyl sulfoxide (DMSO) among the tested solvents

CCN1C[C@]2(COC)[C@H](O)C[C@H](OC)[C@@]34[C@@H]5C[C@@]6(O)[C@H](OC(=O)c7ccccc7)[C@@H]5[C@@](OC(C)=O)([C@@H]([C@H](OC)[C@H]23)[C@@H]14)[C@@H](O)[C@@H]6OC [aconitine]
Fitting equation (zero-level; slope = absorption rate constant ka) (everted rat gut sacs [5]; colon, aconitine 75 ng/mL): Q = 0.01937t
Fitting equation (zero-level; slope = absorption rate constant ka) (everted rat gut sacs [5]; colon, aconitine 750 ng/mL): Q = 0.1302t
Fitting equation (zero-level; slope = absorption rate constant ka) (everted rat gut sacs [5]; colon, aconitine 7500 ng/mL): Q = 2.000t
Fitting equation (zero-level; slope = absorption rate constant ka) (everted rat gut sacs [5]; duodenum, aconitine 75 ng/mL): Q = 0.02546t
Fitting equation (zero-level; slope = absorption rate constant ka) (everted rat gut sacs [5]; duodenum, aconitine 750 ng/mL): Q = 0.05406t
Fitting equation (zero-level; slope = absorption rate constant ka) (everted rat gut sacs [5]; duodenum, aconitine 7500 ng/mL): Q = 3.528t
Fitting equation (zero-level; slope = absorption rate constant ka) (everted rat gut sacs [5]; ileum, aconitine 75 ng/mL): Q = 0.01294t
Fitting equation (zero-level; slope = absorption rate constant ka) (everted rat gut sacs [5]; ileum, aconitine 750 ng/mL): Q = 0.2906t
Fitting equation (zero-level; slope = absorption rate constant ka) (everted rat gut sacs [5]; ileum, aconitine 7500 ng/mL): Q = 2.529t
Fitting equation (zero-level; slope = absorption rate constant ka) (everted rat gut sacs [5]; jejunum, aconitine 75 ng/mL): Q = 0.02977t
Fitting equation (zero-level; slope = absorption rate constant ka) (everted rat gut sacs [5]; jejunum, aconitine 750 ng/mL): Q = 0.2028t
Fitting equation (zero-level; slope = absorption rate constant ka) (everted rat gut sacs [5]; jejunum, aconitine 7500 ng/mL): Q = 3.2531t
ER(P2/P0) (everted rat gut sacs [1]; colon): 0.4363
ER(P1/P0) (everted rat gut sacs [1]; colon): 0.6695
ER(P2/P0) (everted rat gut sacs [1]; duodenum): 0.3602
ER(P1/P0) (everted rat gut sacs [1]; duodenum): 0.2703
ER(P2/P0) (everted rat gut sacs [1]; ileum): 0.3464
ER(P1/P0) (everted rat gut sacs [1]; ileum): 0.3615
ER(P2/P0) (everted rat gut sacs [1]; jejunum): 0.3979
ER(P1/P0) (everted rat gut sacs [1]; jejunum): 0.3942
P-glycoprotein substrate status (P-glycoprotein [6]): potential substrate of P-glycoprotein
Toxicity to gut sac tissue (glucose serosal/mucosal ratio) (everted rat gut sacs [7]): did not induce toxicity in the gut sac tissue
Stability RSD% ([3]; High concentration QC samples): 10.04%
Stability RSD% ([3]; Low concentration QC samples): 2.448%
Stability RSD% [3, 9]: 11.72%
Stability of QC samples [3]: stable for 48 h
Solubility in solvents [4]: able to be dissolved in methanol
P-glycoprotein substrate / inhibitor status (P-glycoprotein [8]): both a substrate and an inhibitor of P-glycoprotein
